Laboratory results as given in ChEMBL document CHEMBL3769362, “Thermodynamic profiling of inhibitors of Nrf2:Keap1 interactions” (Bioorg Med Chem Lett, 2016).
Active and inactive are the calls of the source. The calls are words filed in the database; no cut-off is given here.

Columns and labels:
[1] = target: T1, Keap1/Nrf2 (Homo sapiens) (UniProt Q16236+Q14145); assay: Inhibition of Nrf2:Keap1 interaction (unknown origin) assessed as thermodynamic enthalpy changes by MR121 dye-labeled Nrf2-derived peptide based tracer displacement assay; format: protein assay
T1 sequence (Q14145 whole entry, looked up): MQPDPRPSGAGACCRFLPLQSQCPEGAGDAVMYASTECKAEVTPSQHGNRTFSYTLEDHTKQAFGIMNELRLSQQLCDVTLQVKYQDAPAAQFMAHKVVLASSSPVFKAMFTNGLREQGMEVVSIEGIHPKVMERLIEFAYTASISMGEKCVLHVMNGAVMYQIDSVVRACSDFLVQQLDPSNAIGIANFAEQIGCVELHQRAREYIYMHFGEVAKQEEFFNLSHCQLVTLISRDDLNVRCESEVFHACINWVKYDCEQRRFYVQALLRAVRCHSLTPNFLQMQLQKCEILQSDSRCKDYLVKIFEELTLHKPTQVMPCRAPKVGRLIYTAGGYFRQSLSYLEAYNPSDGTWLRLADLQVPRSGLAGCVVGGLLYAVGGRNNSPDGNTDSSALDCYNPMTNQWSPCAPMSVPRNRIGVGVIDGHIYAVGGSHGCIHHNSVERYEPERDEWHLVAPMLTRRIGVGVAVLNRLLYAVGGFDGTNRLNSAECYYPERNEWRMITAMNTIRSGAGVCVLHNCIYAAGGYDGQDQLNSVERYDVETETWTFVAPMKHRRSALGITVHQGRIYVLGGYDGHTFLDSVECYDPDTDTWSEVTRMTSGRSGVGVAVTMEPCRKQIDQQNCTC
T1 sequence (Q16236 whole entry, looked up): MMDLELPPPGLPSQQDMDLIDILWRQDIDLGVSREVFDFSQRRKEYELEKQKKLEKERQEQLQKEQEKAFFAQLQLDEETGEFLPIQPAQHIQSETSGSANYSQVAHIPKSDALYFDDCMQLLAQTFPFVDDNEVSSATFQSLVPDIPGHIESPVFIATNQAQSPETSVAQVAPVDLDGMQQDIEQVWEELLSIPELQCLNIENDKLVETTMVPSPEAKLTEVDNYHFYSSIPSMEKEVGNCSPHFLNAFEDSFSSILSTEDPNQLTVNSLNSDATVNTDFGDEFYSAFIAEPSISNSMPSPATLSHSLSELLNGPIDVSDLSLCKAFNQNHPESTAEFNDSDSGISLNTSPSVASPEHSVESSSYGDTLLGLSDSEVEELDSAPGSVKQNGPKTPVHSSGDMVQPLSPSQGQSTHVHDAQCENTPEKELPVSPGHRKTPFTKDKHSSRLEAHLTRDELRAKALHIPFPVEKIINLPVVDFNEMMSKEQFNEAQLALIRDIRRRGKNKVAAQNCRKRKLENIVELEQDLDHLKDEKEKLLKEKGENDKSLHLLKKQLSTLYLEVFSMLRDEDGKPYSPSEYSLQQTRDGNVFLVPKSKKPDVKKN

[2] = target: T1, Keap1/Nrf2 (Homo sapiens); assay: Inhibition of Nrf2:Keap1 interaction (unknown origin) assessed as induction of negative TdeltaS values by MR121 dye-labeled Nrf2-derived peptide based tracer displacement assay; format: protein assay

Row | deltaG [1] [kcal/mol] | Activity [2] | Compound
1 | -5.93 | Active | Cc1ccc(S(=O)(=O)C2CN=C(SCC(=O)Nc3ccccc3C(F)(F)F)NC2=O)c(C)c1 (centres undefined)
2 | -7.84 | Active | COc1ccc(S(=O)(=O)Nc2ccc(NS(=O)(=O)c3ccc(OC)cc3)c3ccccc23)cc1
